Earlier results in patent US20080063668A1, “Nitroimidazole and terconazole composition and method” (priority 2006, published 2008).
Where a name gives a salt, the structure may show the parent alone.

Details: neutral pH; cited from earlier work

Q: Which solubility in water does the source give for `CC(C)N1CCN(c2ccc(OCC3COC(Cn4cncn4)(c4ccc(Cl)cc4Cl)O3)cc2)CC1` (stereo not shown) [Terconazole hydrochloride] here?
A: Its solubility in water is “about 0.007 percent by weight”.
